# Measured values reported in patent publication US5770587A, “Antifungal agents” (Merck & Co., Inc., priority 1996, dated 1998).
# How the values were obtained:
# Format in all cases: cell-based
# panel of fungi = assay: broth microdilution assay against a panel of fungi, comparison with amphotericin B; settings: MIC and MFC against a panel of fungi
# Procedure: (§1) In the microbroth dilution assay, microorganisms were selected by streaking a yeast culture on Sabouraud dextrose agar (SDA) incubating for 24-48 hours at 35°-37° C., thereafter selected 3 to 5 characteristic colonies and transferring to a fresh plate and incubating under similar conditions. From the regrowth, 3 to 5 colonies were selected and suspended in 10 milliliters of YM broth (Difco) and incubated for 4 hours at 35°-37° C. shaking at 225 rpm. The 4 hour broth cultures were adjusted optically to 86% transmission resulting in a concentration of 1-5×10^6 cfu/ml which was further diluted 1:100 in YNBD (yeast nitrogen base with 1 % dextrose) to obtain a concentration of 1-5×10^4 cfu/ml for use as inocula. […]
# (§2) The plates containing the diluted compounds were then inoculated with 75 μl/well of the appropriate microorganism and incubated for 48 hours at 35°-37° C. with MIC (minimum inhibitory concentration) determinations carried out after 24 hours of incubation (except Cryptococcus strains which are read at 48 hours). […]
# (§3) After recording MICs at 24 hours, the microtiter plates were shaken gently to resuspend the cells. […] For Cryptococcus neoformans, SDA plates were inoculated at 48 hours after recording MICs and incubated 48 hours before reading the MFC. […]
# [1] = tested on: Aspergillus flavus, Fusarium oxysporum, Ustilago zeae and the like; assay: agar plate inhibition zone test, filamentous fungi; settings: agar plates, 28° C. or 37° C., 24 hours, inhibition zones
# [2] = tested on: Candida albicans (MY1055); assay: broth microdilution assay (MIC/MFC)
# Procedure: (§4) In the microbroth dilution assay, microorganisms were selected by streaking a yeast culture on Sabouraud dextrose agar (SDA) incubating for 24-48 hours at 35°-37° C., thereafter selected 3 to 5 characteristic colonies and transferring to a fresh plate and incubating under similar conditions. From the regrowth, 3 to 5 colonies were selected and suspended in 10 milliliters of YM broth (Difco) and incubated for 4 hours at 35°-37° C. shaking at 225 rpm. The 4 hour broth cultures were adjusted optically to 86% transmission resulting in a concentration of 1-5×10^6 cfu/ml which was further diluted 1:100 in YNBD (yeast nitrogen base with 1 % dextrose) to obtain a concentration of 1-5×10^4 cfu/ml for use as inocula.
# (§5) The test compounds, Compounds I and II, were dissolved at 512 μg/ml in 10% DMSO and diluted 2× into the first well to achieve a concentration of 256 μg/ml at 5% DMSO in the first well. Compounds are subsequently serially diluted 2× and cell suspension is added to each well resulting in an additional 2× dilution of compound. 75 μl of said solution is delivered to each well in column 1 of a 96-well, U-bottomed microtiter plate. The compounds in column 1 were then serially diluted two-fold to yield concentrations from 128 μg/ml to 0.06 μg/ml.
# (§6) The plates containing the diluted compounds were then inoculated with 75 μl/well of the appropriate microorganism and incubated for 48 hours at 35°-37° C. with MIC (minimum inhibitory concentration) determinations carried out after 24 hours of incubation (except Cryptococcus strains which are read at 48 hours). Growth and sterility controls for each organism and sterility checks for the compounds also were carried out.
# (§7) After recording MICs at 24 hours, the microtiter plates were shaken gently to resuspend the cells. A 1.5 μl sample was transferred from each well of the 96-well microtiter plate to a single reservoir inoculum plate containing SDA. The inoculated SDA and corresponding microtiter plates were incubated for 24 hours at 35°-37° C. For Cryptococcus neoformans, SDA plates were inoculated at 48 hours after recording MICs and incubated 48 hours before reading the MFC. MFC is the lowest concentration of compound at which either no growth or growth of ≤4 colonies occur.
# [3] = tested on: Cryptococcus neoformans (MY2062); assay: broth microdilution assay (MIC/MFC)
# Procedure: as §4, §5, §6, §7
# [4] = tested on: Candida parapsilosis (MY1010); assay: broth microdilution assay (MIC/MFC); settings: 24 h, 35-37° C.
# Procedure: as §4, §5, §6, §7
# Candida albicans (CA2) = assay: broth microdilution assay (MIC/MFC)
# Procedure: as §4, §5, §6, §7
# [5] = tested on: Candida tropicalis (MY1124); assay: broth microdilution assay (MIC/MFC)
# Procedure: as §4, §5, §6, §7
# [6] = tested on: Cryptococcus neoformans (MY2061); assay: broth microdilution assay (MIC/MFC)
# Procedure: as §4, §5, §6, §7
# [7] = tested on: Saccharomyces cerevisiae (MY2141); assay: broth microdilution assay (MIC/MFC)
# Procedure: as §4, §5, §6, §7
# [8] = tested on: Candida tropicalis (MY1012); assay: broth microdilution assay (MIC/MFC)
# Procedure: as §4, §5, §6, §7
# [9] = tested on: Candida guillermondii (MY1019); assay: broth microdilution assay (MIC/MFC)
# Procedure: as §4, §5, §6, §7
# [10] = tested on: Candida albicans (CLY539); assay: broth microdilution assay (MIC/MFC)
# Procedure: as §4, §5, §6, §7
# [11] = tested on: Candida glabrata (MY1381); assay: broth microdilution assay (MIC/MFC)
# Procedure: as §4, §5, §6, §7
# [12] = tested on: Saccharomyces cerevisiae (MY2140); assay: broth microdilution assay (MIC/MFC)
# Procedure: as §4, §5, §6, §7
# [13] = tested on: Candida pseudotropicalis (MY2099); assay: broth microdilution assay (MIC/MFC)
# Procedure: as §4, §5, §6, §7
# [14] = tested on: Aspergillus fumigatus (MY4839); assay: broth microdilution assay (MIC)
# Procedure: as §1, §2, §3
# [15] = tested on: Aspergillus fumigatus (MY5668); assay: broth microdilution assay (MIC)
# Procedure: as §1, §2, §3
# [16] = SDA incubated 48 h, no growth or ≤4 colonies
smiles,measurement,setting,value
CC(C)C1CCC2C1(C)CCC1(C)C3=CCC4C(C)(C(=O)O)C(O)C(O)C(O)C4(C(=O)O)C3CCC21C (centres unmarked) [Compound II],effective concentrations compared with amphotericin B,panel of fungi,"effective at concentrations comparable to an established antifungal agent, amphotericin B"
same,inhibition of growth of filamentous fungi,[1],effectively inhibit growth of the fungal organisms
same,Minimum Inhibitory Concentration (MIC),"[2]; 24 h, 35-37° C.",8 µg/mL
same,Minimum Fungicidal Concentration (MFC),[2]; no growth or ≤4 colonies,8 µg/mL
same,Minimum Fungicidal Concentration (MFC),[3]; [16],4 µg/mL
same,Minimum Inhibitory Concentration (MIC),"[3]; read at 48 h, 35-37° C.",4 µg/mL
same,Minimum Inhibitory Concentration (MIC),[4],32 µg/mL
same,Minimum Inhibitory Concentration (MIC),"Candida albicans (CA2); 24 h, 35-37° C.",8 µg/mL
same,Minimum Fungicidal Concentration (MFC),Candida albicans (CA2); no growth or ≤4 colonies,8 µg/mL
same,Minimum Inhibitory Concentration (MIC),"[5]; 24 h, 35-37° C.",8 µg/mL
same,Minimum Fungicidal Concentration (MFC),[5]; no growth or ≤4 colonies,8 µg/mL
same,Minimum Fungicidal Concentration (MFC),[6]; [16],4 µg/mL
same,Minimum Inhibitory Concentration (MIC),"[6]; read at 48 h, 35-37° C.",4 µg/mL
same,Minimum Inhibitory Concentration (MIC),"[7]; 24 h, 35-37° C.",4 µg/mL
same,Minimum Fungicidal Concentration (MFC),[7]; no growth or ≤4 colonies,4 µg/mL
same,Minimum Inhibitory Concentration (MIC),"[8]; 24 h, 35-37° C.",4 µg/mL
same,Minimum Fungicidal Concentration (MFC),[8]; no growth or ≤4 colonies,8 µg/mL
same,Minimum Inhibitory Concentration (MIC),"[9]; 24 h, 35-37° C.",> 128 µg/mL
same,Minimum Fungicidal Concentration (MFC),[9]; no growth or ≤4 colonies,> 128 µg/mL
same,Minimum Inhibitory Concentration (MIC),"[10]; 24 h, 35-37° C.",8 µg/mL
same,Minimum Fungicidal Concentration (MFC),[10]; no growth or ≤4 colonies,8 µg/mL
same,Minimum Inhibitory Concentration (MIC),"[11]; 24 h, 35-37° C.",8 µg/mL
same,Minimum Fungicidal Concentration (MFC),[11]; no growth or ≤4 colonies,8 µg/mL
same,Minimum Inhibitory Concentration (MIC),"[12]; 24 h, 35-37° C.",4 µg/mL
same,Minimum Fungicidal Concentration (MFC),[12]; no growth or ≤4 colonies,4 µg/mL
same,Minimum Inhibitory Concentration (MIC),"[13]; 24 h, 35-37° C.",4 µg/mL
same,Minimum Fungicidal Concentration (MFC),[13]; no growth or ≤4 colonies,4 µg/mL
same,Minimum Inhibitory Concentration (MIC),[14],8 µg/mL
same,Minimum Inhibitory Concentration (MIC),[15],> 128 µg/mL
